# Where two headings read alike, the source gives them in different places.
# What was measured:
# MV-4-11 = assay: Tumor cell proliferation inhibition (CellTiter-Meiluncell Luminescent Cell Viability Assay); type: cell-based; conditions: Homo sapiens, 96 hours; for inhibition at 0.01 µM: MV4-11, 10 nM, read-out: Inhibition Rate at 10 nM (%); for inhibition at 0.5 µM: MV4-11, 500 nM, read-out: Inhibition Rate at 500 nM (%)
# Experimental: The tumor cells used herein were cultured in a cell culture medium listed in table 3 at 37°C in an incubator with 5% CO2. Prior to experimentation, all cell lines used were correctly identified by STR profiling, and tested negative for mycoplasma contamination using a mycoplasma detection kit through routine screenings. Table 3. Tumor cells and cell culture medium used in the present disclosure
# The IC50 values of the compounds of the present disclosure (including the compounds in Table 1, Table 2, and Examples) were determined using the CellTiter-Meiluncell Luminescent Cell Viability Assay Kit from Dalian Meilun Biotech Co., Ltd. The detailed procedure is as follows: Tumor cells were seeded in 96-well cell culture plates at the densities specified in Table 4. On the following day, the test compounds of the present disclosure were subjected to serial dilution. […] Subsequently, 0.5 µL of the test compound dilution was transferred into the 96-well plate containing the cells, with each well containing 100 µL of cell culture medium. […] Into the 96-well plate, the diluted test compounds and corresponding detection reagents were added, resulting in final test compound concentrations of 500 nM and 10 nM, respectively. The experimental procedure is described below using the diluted 2 µM test compound as an example.
# 0.5 µL of the aforementioned diluted compound of the present disclosure (including the compounds in Table 1, Table 2, and Examples) was added to the seeded cells in 100 µL of medium, yielding a final test compound concentration of 10 nM. After the cells were treated with the compounds of the present disclosure for a specified period, the cell viability assay reagent was added to the culture medium according to the kit's instructions to determine cell viability. […] All controls were treated using the same procedure as the compounds of the present disclosure. […] Seeding protocol and treatment time for tumor cells
# [1] = molecular target: T1, human Cereblon WT GST-tagged protein (Homo sapiens, UniProt Q96SW2); assay: CRBN-binding affinity, HTRF (CEREBLON BINDING kit); conditions: for inhibition at 0.5 µM: read-out: Inhibition Rate at 0.5 µM (%); for inhibition at 2 µM: read-out: Inhibition Rate at 2 µM (%)
# T1 construct: purchased CISBIO 64BDCRBNPEH
# Source text: The CEREBLON BINDING kits (specification: 10,000 tests; product number: Catalog # 64BDCRBNPEH; CISBIO company) was used to determine the CRBN binding ability of the compounds to be tested through a HTRF method (homogeneous time-resolved fluorescence). The specific methods are as follows: • 1. […] Specifically, diluent #9 (1X) solution was used as the diluent, and multiple concentration gradients were set. […] Into the 96-well plate, the diluted test compounds and corresponding detection reagents were added, resulting in final test compound concentrations of 2 µM and 0.5 µM, respectively. […] Then, 2.5 µL of human Cereblon WT GST-tagged protein solution was added to each well. Finally, 5 µL of the thoroughly mixed Thalidomide-Re reagent and GST Eu antibody working solution were added to each of the aforementioned wells. […] The blank control wells were sequentially added with 2.5 µL of diluent #9 (1X) solution, 2.5 µL of PROTAC binding buffer, and 5 µL of thoroughly mixed Thalidomide-Re reagent and GST Eu antibody working solution. • 4.
# [2] = Table I-8, SMARCA2/4 inhibitors
# T1 sequence (Q96SW2 whole entry): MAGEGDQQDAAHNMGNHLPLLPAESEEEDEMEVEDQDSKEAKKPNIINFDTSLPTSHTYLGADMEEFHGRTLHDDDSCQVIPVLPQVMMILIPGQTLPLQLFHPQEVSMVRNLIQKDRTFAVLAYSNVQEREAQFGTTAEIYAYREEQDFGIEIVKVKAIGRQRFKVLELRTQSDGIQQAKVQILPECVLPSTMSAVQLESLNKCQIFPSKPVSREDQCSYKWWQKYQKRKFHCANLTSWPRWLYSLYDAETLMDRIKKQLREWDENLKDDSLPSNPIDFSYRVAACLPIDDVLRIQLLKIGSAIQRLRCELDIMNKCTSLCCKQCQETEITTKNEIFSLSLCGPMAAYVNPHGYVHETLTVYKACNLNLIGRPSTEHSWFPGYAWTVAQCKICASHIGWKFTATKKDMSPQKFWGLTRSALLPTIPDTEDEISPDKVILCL
inhibition at 0.5 µM [1] [%],inhibition at 2 µM [1] [%],SMILES,"inhibition at 0.01 µM (MV-4-11; Table I-6, IRAK4 inhibitors) [%]","inhibition at 0.5 µM (MV-4-11; Table I-6, IRAK4 inhibitors) [%]","inhibition at 0.01 µM (MV-4-11; Table I-3, EGFR inhibitors) [%]","inhibition at 0.5 µM (MV-4-11; Table I-3, EGFR inhibitors) [%]",further results
40 to 53,80 to 100,"Cn1ncc(-c2nc(NC3CCN(Cc4ccc5c(c4)C(=S)N(C4CCC(=O)NC4=O)C5)CC3)ncc2Cl)c1CC1CC1 (centres unmarked) [GT-08751, 3-(6-((4-((5-chloro-4-(5-(cyclopropylmethyl)-1-methyl-1H-pyrazol-4-yl)pyrimidin-2-yl)amino)piperidin-1-yl)methyl)-1-thioxoisoindolin-2-yl)piperidine-2,6-dione]",–,–,–,–,"inhibition at 0.01 µM (MV-4-11; Table I-7, CDK9 inhibitors): 10 to 20%; inhibition at 0.5 µM (MV-4-11; Table I-7, CDK9 inhibitors): 60 to 70%"
80 to 100,80 to 100,"COc1cc(N2CCC(N(C)Cc3ccc4c(c3)CN(C3CCC(=O)NC3=O)C4=S)CC2)c(C)cc1Nc1ncc(Br)c(Nc2ccc3nccnc3c2P(C)(C)=O)n1 (centres unmarked) [GT-08754, 3-(5-(((1-(4-((5-bromo-4-((5-(dimethylphosphoryl)quinoxalin-6-yl)amino)pyrimidin-2-yl)amino)-5-methoxy-2-methylphenyl)piperidin-4-yl)(methyl)amino)methyl)-1-thioxoisoindolin-2-yl)piperidine-2,6-dione]",–,–,10 to 20,70 to 80,–
80 to 100,80 to 100,"COc1cc(N2CCC(N3CCN(Cc4ccc5c(c4)CN(C4CCC(=O)NC4=O)C5=S)CC3)CC2)c(C)cc1Nc1ncc(Br)c(Nc2ccc3nccnc3c2P(C)(C)=O)n1 (centres unmarked) [GT-08755, 3-(5-((4-(1-(4-((5-bromo-4-((5-(dimethylphosphoryl)quinoxalin-6-yl)amino)pyrimidin-2-yl)amino)-5-methoxy-2-methylphenyl)piperidin-4-yl)piperazin-1-yl)methyl)-1-thioxoisoindolin-2-yl)piperidine-2,6-dione]",–,–,20 to 30,70 to 80,–
30 to 40,80 to 100,"COC1CCN(c2nccc(Nc3cc4c(cn3)c(N3CCN(Cc5ccc6c(c5)CN(C5CCC(=O)NC5=O)C6=S)CC3)nn4C(C)C)n2)CC1 (centres unmarked) [GT-08756, 3-(5-((4-(1-isopropyl-6-((2-(4-methoxypiperidin-1-yl)pyrimidin-4-yl)amino)-1H-pyrazolo[4,3-c]pyridin-3-yl)piperazin-1-yl)methyl)-1-thioxoisoindolin-2-yl)piperidine-2,6-dione]",–,–,5 to 10,40 to 50,–
53 to 60,60 to 80,"COc1cc(N2CCC(N(C)Cc3cccc4c3CN(C3CCC(=O)NC3=O)C4=S)CC2)c(C)cc1Nc1ncc(Br)c(Nc2ccc3nccnc3c2P(C)(C)=O)n1 (centres unmarked) [GT-08758, 3-(4-(((1-(4-((5-bromo-4-((5-(dimethylphosphoryl)quinoxalin-6-yl)amino)pyrimidin-2-yl)amino)-5-methoxy-2-methylphenyl)piperidin-4-yl)(methyl)amino)methyl)-1-thioxoisoindolin-2-yl)piperidine-2,6-dione]",–,–,10 to 20,60 to 70,–
53 to 60,80 to 100,"Nc1nnc(-c2ccccc2O)cc1N1CCN(Cc2cccc3c2CN(C2CCC(=O)NC2=O)C3=S)CC1 (centres unmarked) [GT-08786, 3-(4-((4-(3-amino-6-(2-hydroxyphenyl)pyridazin-4-yl)piperazin-1-yl)methyl)-1-thioxoisoindolin-2-yl)piperidine-2,6-dione]",–,–,–,–,inhibition at 0.01 µM (MV-4-11; [2]): 10 to 15%; inhibition at 0.5 µM (MV-4-11; [2]): 40 to 50%

# More lines, now with the values behind:
SMILES,inhibition at 0.5 µM [1] [%],inhibition at 2 µM [1] [%],"inhibition at 0.01 µM (MV-4-11; Table I-6, IRAK4 inhibitors) [%]","inhibition at 0.5 µM (MV-4-11; Table I-6, IRAK4 inhibitors) [%]","inhibition at 0.01 µM (MV-4-11; Table I-3, EGFR inhibitors) [%]","inhibition at 0.5 µM (MV-4-11; Table I-3, EGFR inhibitors) [%]",further results
"O=C1CCC(N2Cc3cc(CN4CCN(c5ccc6c(c5)nc(NC(=O)c5cccc(C(F)(F)F)c5)n6[C@H]5CC[C@@H](CO)CC5)CC4)ccc3C2=S)C(=O)N1 (relative stereo) [GT-05293, N-(5-(4-((2-(2,6-dioxopiperidin-3-yl)-1-thioxoisoindolin-5-yl)methyl)piperazin-1-yl)-1-((1s,4s)-4-(hydroxymethyl)cyclohexyl)-1H-benzo[d]imidazol-2-yl)-3-(trifluoromethyl)benzamide]",40 to 53,60 to 80,10 to 20,60 to 70,–,–,–
"O=C1CCC(N2Cc3c(CN4CCC(n5cc(NC(=O)c6cnn7ccc(N8CCOCC8)nc67)c(C(F)F)n5)CC4)cccc3C2=S)C(=O)N1 (centres unmarked) [GT-05287, N-(3-(difluoromethyl)-1-(1-((2-(2,6-dioxopiperidin-3-yl)-1-thioxoisoindolin-4-yl)methyl)piperidin-4-yl)-1H-pyrazol-4-yl)-5-morpholinopyrazolo[1,5-a]pyrimidine-3-carboxamide]",53 to 60,80 to 100,10 to 20,70 to 80,–,–,–
"O=C1CCC(N2Cc3c(CN4CCC(n5cc(NC(=O)c6cnn7ccc(N8C[C@H]9C[C@@H]8CO9)nc67)c(C(F)F)n5)CC4)cccc3C2=S)C(=O)N1 (stereo partly drawn) [GT-05288, 5-((1R,4R)-2-oxa-5-azabicyclo[2.2.1]heptan-5-yl)-N-(3-(difluoromethyl)-1-(1-((2-(2,6-dioxopiperidin-3-yl)-1-thioxoisoindolin-4-yl)methyl)piperidin-4-yl)-1H-pyrazol-4-yl)pyrazolo[1,5-a]pyrimidine-3-carboxamide]",53 to 60,80 to 100,0 to 5,40 to 50,–,–,–
"Cc1cc(-c2nc(C(=O)Nc3cc4oc(N5CCN(Cc6cccc7c6CN(C6CCC(=O)NC6=O)C7=S)CC5)nc4nc3N3CC[C@@H](O)C3)co2)ccn1 (stereo partly drawn) [GT-05289, N-(2-(4-((2-(2,6-dioxopiperidin-3-yl)-1-thioxoisoindolin-4-yl)methyl)piperazin-1-yl)-5-((R)-3-hydroxypyrrolidin-1-yl)oxazolo[4,5-b]pyridin-6-yl)-2-(2-methylpyridin-4-yl)oxazole-4-carboxamide]",40 to 53,60 to 80,5 to 10,70 to 80,–,–,–
"COc1cc2nn(C3CCN(Cc4ccc5c(c4)CN(C4CCC(=O)NC4=O)C5=S)CC3)cc2cc1NC(=O)c1cccc(C(F)(F)F)n1 (centres unmarked) [GT-05296, N-(2-(1-((2-(2,6-dioxopiperidin-3-yl)-1-thioxoisoindolin-5-yl)methyl)piperidin-4-yl)-6-methoxy-2H-indazol-5-yl)-6-(trifluoromethyl)picolinamide]",60 to 80,80 to 100,10 to 20,50 to 60,–,–,–
"Cc1cc(-c2nc(C(=O)Nc3cc4oc(N5CCN(Cc6ccc7c(c6)CN(C6CCC(=O)NC6=O)C7=S)CC5)nc4nc3N3CC[C@@H](O)C3)co2)ccn1 (stereo partly drawn) [GT-05322, N-(2-(4-((2-(2,6-dioxopiperidin-3-yl)-1-thioxoisoindolin-5-yl)methyl)piperazin-1-yl)-5-((R)-3-hydroxypyrrolidin-1-yl)oxazolo[4,5-b]pyridin-6-yl)-2-(2-methylpyridin-4-yl)oxazole-4-carboxamide]",60 to 80,80 to 100,10 to 20,80 to 100,–,–,–
"Cc1cc(S(=O)(=O)N2CCN(Cc3cccc4c3CN(C3CCC(=O)NC3=O)C4=S)CC2)ccc1Nc1ncc(Br)c(Nc2cccc(F)c2C(N)=O)n1 (centres unmarked) [GT-08793, 2-((5-bromo-2-((4-((4-((2-(2,6-dioxopiperidin-3-yl)-1-thioxoisoindolin-4-yl)methyl)piperazin-1-yl)sulfonyl)-2-methylphenyl)amino)pyrimidin-4-yl)amino)-6-fluorobenzamide]",–,–,–,–,–,–,"inhibition at 0.01 µM (MV-4-11; Table I-13, CDK2 inhibitors): 30 to 40%; inhibition at 0.5 µM (MV-4-11; Table I-13, CDK2 inhibitors): 60 to 70%"

# From patent EP4745138A1, “THIO-GLUTARIMIDO ISOINDOLINONE DERIVATIVE, BIFUNCTIONAL PROTEIN DEGRADER CONTAINING SAME, AND USES THEREOF” (Gluetacs Therapeutics (Shanghai) Co., Ltd., priority 2023, dated 2025)
